Assay results as given in ChEMBL document CHEMBL1201862, “PubChem BioAssay data set” (2004).
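Protocol summary: plate cells (96-well), add compound at 5 concentrations, incubate 48 h, interpolate endpoints linearly. GI50 = concentration required for 50% inhibition of growth.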 Calls of active or inactive are those of the source. No stated cut-off is given here; in the data, active = GI50 up to about 1.1 µM and inactive = higher.

Legend:
Assay in all cases: growth of human tumour cells (NCI), 48 h
IGROV-1 = tested on: IGROV-1
MOLT-4 = tested on: MOLT-4
RXF 393 = tested on: RXF 393
HCT-15 = tested on: HCT-15
SF-268 = tested on: SF-268
MDA-MB-435 = tested on: MDA-MB-435
A549 = tested on: A549
786-0 = tested on: 786-0
DU-145 = tested on: DU-145
TK-10 = tested on: TK-10
UACC-62 = tested on: UACC-62
SR = tested on: SR
SNB-75 = tested on: SNB-75
CAKI-1 = tested on: CAKI-1
Malme-3M = tested on: Malme-3M
NCI/ADR-RES = tested on: NCI/ADR-RES
UO-31 = tested on: UO-31
NCI-H23 = tested on: NCI-H23
SF-295 = tested on: SF-295
A498 = tested on: A498
SW-620 = tested on: SW-620
T47D = tested on: T47D
ACHN = tested on: ACHN
SK-OV-3 = tested on: SK-OV-3
Hs-578T = tested on: Hs-578T
OVCAR-3 = tested on: OVCAR-3
EKVX = tested on: EKVX
NCI-H522 = tested on: NCI-H522
HOP-62 = tested on: HOP-62
OVCAR-4 = tested on: OVCAR-4
HT-29 = tested on: HT-29
MDA-MB-231 = tested on: MDA-MB-231
BT-549 = tested on: BT-549
MDA-N = tested on: MDA-N
RPMI-8226 = tested on: RPMI-8226
K562 = tested on: K562
MCF7 = tested on: MCF7
M14 = tested on: M14
SK-MEL-28 = tested on: SK-MEL-28
LOX IMVI = tested on: LOX IMVI
SK-MEL-2 = tested on: SK-MEL-2
SNB-19 = tested on: SNB-19
SK-MEL-5 = tested on: SK-MEL-5
NCI-H226 = tested on: NCI-H226
NCI-H460 = tested on: NCI-H460
SN12C = tested on: SN12C
OVCAR-8 = tested on: OVCAR-8
HCT-116 = tested on: HCT-116
KM12 = tested on: KM12
COLO 205 = tested on: COLO 205
HOP-92 = tested on: HOP-92
HL-60 = tested on: HL-60
SF-539 = tested on: SF-539
U-251 = tested on: U-251
PC-3 = tested on: PC-3
OVCAR-5 = tested on: OVCAR-5
UACC-257 = tested on: UACC-257
HCC 2998 = tested on: HCC 2998
CCRF-CEM = tested on: CCRF-CEM

## Cc1nc(O)c2c3c(sc2n1)CCCC3
IGROV-1
  GI50: > 100 µM (inactive)
MOLT-4
  GI50: > 100 µM (inactive)
RXF 393
  GI50: > 100 µM (inactive)
HCT-15
  GI50: > 100 µM
SF-268
  GI50: > 100 µM (inactive)
MDA-MB-435
  GI50: > 100 µM (inactive)
A549
  GI50: 78.5 µM (inactive)
786-0
  GI50: 35.9 µM (inactive)
DU-145
  GI50: > 100 µM (inactive)
TK-10
  GI50: > 100 µM (inactive)
UACC-62
  GI50: 58.2 µM (inactive)
SR
  GI50: 27 µM (inactive)
SNB-75
  GI50: > 100 µM (inactive)
CAKI-1
  GI50: > 100 µM (inactive)
Malme-3M
  GI50: > 100 µM (inactive)
NCI/ADR-RES
  GI50: > 100 µM (inactive)
UO-31
  GI50: 20.4 µM (inactive)
NCI-H23
  GI50: > 100 µM (inactive)
SF-295
  GI50: > 100 µM (inactive)
A498
  GI50: > 100 µM (inactive)
SW-620
  GI50: > 100 µM (inactive)
T47D
  GI50: > 100 µM (inactive)
ACHN
  GI50: 54.5 µM (inactive)
SK-OV-3
  GI50: > 100 µM (inactive)
Hs-578T
  GI50: > 100 µM (inactive)
OVCAR-3
  GI50: > 100 µM (inactive)
EKVX
  GI50: 19.9 µM (inactive)
NCI-H522
  GI50: > 100 µM (inactive)
HOP-62
  GI50: > 100 µM (inactive)
OVCAR-4
  GI50: > 100 µM (inactive)
HT-29
  GI50: 54.7 µM (inactive)
MDA-MB-231
  GI50: > 100 µM (inactive)
BT-549
  GI50: > 100 µM (inactive)
MDA-N
  GI50: 87.7 µM (inactive)
RPMI-8226
  GI50: 84.9 µM (inactive)
K562
  GI50: 96.6 µM (inactive)
MCF7
  GI50: 41.4 µM (inactive)
M14
  GI50: > 100 µM (inactive)
SK-MEL-28
  GI50: > 100 µM (inactive)
LOX IMVI
  GI50: 72.4 µM (inactive)
SK-MEL-2
  GI50: > 100 µM (inactive)
SNB-19
  GI50: > 100 µM (inactive)
SK-MEL-5
  GI50: > 100 µM (inactive)
NCI-H226
  GI50: > 100 µM (inactive)
NCI-H460
  GI50: 0.284 µM (active)
SN12C
  GI50: 51.5 µM (inactive)
OVCAR-8
  GI50: > 100 µM (inactive)
HCT-116
  GI50: 36.7 µM (inactive)
KM12
  GI50: > 100 µM (inactive)
COLO 205
  GI50: > 100 µM (inactive)
HOP-92
  GI50: > 100 µM (inactive)
HL-60
  GI50: > 100 µM (inactive)
SF-539
  GI50: 56.8 µM (inactive)
U-251
  GI50: 66.2 µM (inactive)
PC-3
  GI50: > 100 µM (inactive)
OVCAR-5
  GI50: 60.7 µM (inactive)
UACC-257
  GI50: > 100 µM (inactive)

## O=C1Nc2ccccc2/C1=N/NC(=S)Nc1ccc([N+](=O)[O-])cc1
IGROV-1
  GI50: 10.7 µM (inactive)
MOLT-4
  GI50: 2.28 µM (inactive)
HCT-15
  GI50: 2.33 µM
SF-268
  GI50: 13 µM (inactive)
MDA-MB-435
  GI50: 6.19 µM (inactive)
A549
  GI50: 6.9 µM (inactive)
786-0
  GI50: 4.81 µM (inactive)
DU-145
  GI50: 14.8 µM (inactive)
TK-10
  GI50: 10 µM (inactive)
UACC-62
  GI50: 8.47 µM (inactive)
SR
  GI50: 4.72 µM (inactive)
SNB-75
  GI50: 13.9 µM (inactive)
CAKI-1
  GI50: 6.07 µM (inactive)
Malme-3M
  GI50: 5.28 µM (inactive)
NCI/ADR-RES
  GI50: 3.01 µM (inactive)
UO-31
  GI50: 4.81 µM (inactive)
NCI-H23
  GI50: 13.8 µM (inactive)
SF-295
  GI50: 6.64 µM (inactive)
SW-620
  GI50: 4.01 µM (inactive)
T47D
  GI50: 10.4 µM (inactive)
HCC 2998
  GI50: 11.3 µM (inactive)
ACHN
  GI50: 6.84 µM (inactive)
SK-OV-3
  GI50: 4.76 µM (inactive)
Hs-578T
  GI50: 15.6 µM (inactive)
OVCAR-3
  GI50: 13.4 µM (inactive)
EKVX
  GI50: 12.3 µM (inactive)
NCI-H522
  GI50: 12.5 µM (inactive)
HOP-62
  GI50: 4.62 µM (inactive)
OVCAR-4
  GI50: 18.6 µM (inactive)
HT-29
  GI50: 18.4 µM (inactive)
MDA-MB-231
  GI50: 0.208 µM (active)
BT-549
  GI50: 14.4 µM (inactive)
MDA-N
  GI50: 11.4 µM (inactive)
RPMI-8226
  GI50: 13.5 µM (inactive)
K562
  GI50: 2.88 µM (inactive)
MCF7
  GI50: 7.93 µM (inactive)
M14
  GI50: 6.62 µM (inactive)
SK-MEL-28
  GI50: 14.2 µM (inactive)
LOX IMVI
  GI50: 2.94 µM (inactive)
SK-MEL-2
  GI50: 4.25 µM (inactive)
SNB-19
  GI50: 10.7 µM (inactive)
SK-MEL-5
  GI50: 10.4 µM (inactive)
NCI-H460
  GI50: 2.51 µM (inactive)
CCRF-CEM
  GI50: 1.53 µM (inactive)
SN12C
  GI50: 16.9 µM (inactive)
OVCAR-8
  GI50: 1.77 µM (inactive)
HCT-116
  GI50: 5.71 µM (inactive)
KM12
  GI50: 10.8 µM (inactive)
COLO 205
  GI50: 10.3 µM (inactive)
HOP-92
  GI50: 13.2 µM (inactive)
HL-60
  GI50: > 100 µM (inactive)
SF-539
  GI50: 13.8 µM (inactive)
U-251
  GI50: 5.85 µM (inactive)
PC-3
  GI50: 3.17 µM (inactive)
OVCAR-5
  GI50: 22.9 µM (inactive)
UACC-257
  GI50: 21.1 µM (inactive)
